Data from patent US12172957B2, “Attractant composition for the species Delottococcus aberiae, methods for the monitoring, detection and/or control of the pest” (Ecologia y Proteccion Agricola, S.L., priority 2018, dated 2024).
Where “and” joins values, the source holds several entries; their conditions need not be identical. Equal entries are not always repeated.

Legend:
[1] = tested on: male Delottococcus aberiae; assay: Choice test in glass Petri dish: response of males to the compound vs. pentane control, laboratory conditions; format: in vivo; conditions: 10 μl on 1 cm^2 filter paper vs. pentane negative control; 10 min; χ2 test P<0.05; FIG. 2
Procedure: The response of male Delottococcus aberiae to (4,5,5-trimethyl-3-methylenecyclopent-1-en-1-yl)methyl acetate was evaluated in the Centro de Ecologia Quimica Agricola (UPV, Valencia) by means of a test on the activity in a glass Petri dish. The tests were performed with light and under the same breeding conditions, at 23±2° C. and 60-70% relative humidity.
For these tests, males from breeding were also used, separated on Petri dishes right when the cottony cocoon begins to form. After pupating and finally emerging from the cocoon, the insects are observed under a binocular scope to confirm their state before being selected for the test.
The method used is described below: for each test, there were placed at opposite ends of the Petri dish a sample of (4,5,5-trimethyl-3-methylenecyclopent-1-en-1-yl)methyl acetate and a negative control (solvent pentane without activity), arranged on 1 cm^2 filter paper in an amount of 10 μl. Immediately, groups of males are carefully deposited on the test plate with the aid of a very fine brush. Therefore, the behaviour of the individuals with respect to the sources of stimulation is recorded for 10 min. Once the test has ended, the insects are discarded, such that each insect is exposed to olfactory stimuli only once. The obtained data were analysed by means of a Chi-squared test (χ2 test, P<0.05).

[2] = tested on: male Delottococcus aberiae; assay: Field tests on the attraction response: baited adhesive traps in a citrus plot; format: in vivo
Procedure: The response in male Delottococcus aberiae to (4,5,5-trimethyl-3-methylenecyclopent-1-en-1-yl)methyl acetate was evaluated in two field tests performed in a citrus var. Marisol plot, located in Sagunto (Valencia), during the months of May-June 2018. In a first test, 3 blocks of 2 devices were installed, said devices being: (A) a device with carrier, without attractant substance and with a trap consisting of a white sheet with adhesive, (B) a device with carrier with bait containing 500 μg of (4,5,5-trimethyl-3-methylenecyclopent-1-en-1-yl)methyl acetate and a trap consisting of a white sheet with adhesive (95×150 mm) (in each block, the devices were located at a distance of 20 m from one another, whereas the distance between blocks was at least 30 m. The carriers loaded with (4,5,5-trimethyl-3-methylenecyclopent-1-en-1-yl)methyl acetate were septum-type carriers and were inserted in the centre of the trap.
The captures obtained in each of the traps were checked each week and the captured individuals were taken to the laboratory to be identified and counted. Traps in the same block were rotated each week.
The number of males captured per trap and day was compared by means of an analysis of variance (ANOVA; LSD test for comparison of the means, P<0.05), subject to transformation (In(x+1)) of the data to homogenise the variance.
In a second test, this was performed in the same way as test 1, but device B included bait containing 100 μg of (4,5,5-trimethyl-3-methylenecyclopent-1-en-1-yl)methyl acetate.

[3] = Analysis of the attractant content of the septum carriers after 20 days in the field (emission); format: physicochemical
Procedure: Therefore, the mean emission for those 20 days is 9.45±2.13 μg/day. […] Therefore, the mean emission for those 20 days is 0.55±0.42 μg/day.

[4] = first field test, tested load 300 μg per septa

C=C1C=C(COC(C)=O)C(C)(C)C1C (racemic) [Pheromone, (4,5,5-trimethyl-3-methylenecyclopent-1-en-1-yl)methyl acetate]
Response of male Delottococcus aberiae in the test of choice [1]: significant attractant response
Male captures per trap and day ([2]; first field test, Table 1, bait 500 μg (300 μg per septa), single traps): 61.0 and 52.7 and 58.0
Average field captures per trap and day ([2]; first field test, bait 500 μg (300 μg elsewhere in the source), controls 0.11, P<0.001): 57.22
Attraction power of baited devices vs. traps without attractant ([2]; first field test, septum bait, white adhesive trap, ANOVA, LSD P<0.05, FIG. 3): significantly higher attraction power
Average field captures per trap and day ([2]; second field test, bait 100 μg, controls 0.06, P<0.036): 9.14
Final content of the substance after 20 days [3, 4]: 109 µg
Mean emission for those 20 days [3, 4]: 9.45 ± 2.13 µg/day
Final content of the substance after 20 days ([3]; second field test, bait 100 μg): 91 µg
Mean emission for those 20 days ([3]; second field test, bait 100 μg): 0.55 ± 0.42 µg/day
